Data reported in ChEMBL document CHEMBL5291721, “A preclinical secondary pharmacology resource illuminates target-adverse drug reaction associations of marketed drugs” (Nat Commun, 2023).

How the values were obtained:
[1] = target: T1, Neuropeptide Y receptor type 1 (Homo sapiens, UniProt P25929)
T1 sequence (P25929 whole entry): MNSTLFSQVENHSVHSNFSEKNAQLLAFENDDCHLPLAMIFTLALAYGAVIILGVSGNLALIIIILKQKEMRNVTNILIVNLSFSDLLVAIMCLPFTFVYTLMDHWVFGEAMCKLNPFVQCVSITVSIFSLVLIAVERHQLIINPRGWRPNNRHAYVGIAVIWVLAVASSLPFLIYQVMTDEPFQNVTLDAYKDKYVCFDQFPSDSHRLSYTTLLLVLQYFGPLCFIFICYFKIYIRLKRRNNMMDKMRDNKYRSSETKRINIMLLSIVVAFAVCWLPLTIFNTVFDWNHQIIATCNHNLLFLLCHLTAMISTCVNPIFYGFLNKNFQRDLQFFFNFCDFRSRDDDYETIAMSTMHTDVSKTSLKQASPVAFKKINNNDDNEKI

[2] = target: Muscarinic acetylcholine receptor M3 (Homo sapiens, UniProt P20309)
[3] = target: T2, Alpha-1A adrenergic receptor (Homo sapiens, UniProt P35348); assay type: functional, cell-based
T2 sequence (P35348 whole entry): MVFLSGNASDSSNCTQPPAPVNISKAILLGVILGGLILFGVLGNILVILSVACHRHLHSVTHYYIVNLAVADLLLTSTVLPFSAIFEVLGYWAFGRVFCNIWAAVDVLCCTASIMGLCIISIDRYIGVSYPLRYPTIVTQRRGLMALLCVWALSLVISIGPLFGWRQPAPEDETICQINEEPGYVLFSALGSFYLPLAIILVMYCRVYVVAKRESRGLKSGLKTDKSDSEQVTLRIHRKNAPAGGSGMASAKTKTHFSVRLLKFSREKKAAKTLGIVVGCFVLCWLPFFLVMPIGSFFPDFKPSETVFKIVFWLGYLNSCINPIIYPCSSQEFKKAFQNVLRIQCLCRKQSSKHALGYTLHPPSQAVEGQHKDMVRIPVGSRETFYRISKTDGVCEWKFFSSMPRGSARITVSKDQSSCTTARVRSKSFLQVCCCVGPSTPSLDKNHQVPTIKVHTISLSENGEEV

Progesterone receptor = target: T3, Progesterone receptor (Homo sapiens, UniProt P06401); assay type: functional
T3 sequence (P06401 whole entry): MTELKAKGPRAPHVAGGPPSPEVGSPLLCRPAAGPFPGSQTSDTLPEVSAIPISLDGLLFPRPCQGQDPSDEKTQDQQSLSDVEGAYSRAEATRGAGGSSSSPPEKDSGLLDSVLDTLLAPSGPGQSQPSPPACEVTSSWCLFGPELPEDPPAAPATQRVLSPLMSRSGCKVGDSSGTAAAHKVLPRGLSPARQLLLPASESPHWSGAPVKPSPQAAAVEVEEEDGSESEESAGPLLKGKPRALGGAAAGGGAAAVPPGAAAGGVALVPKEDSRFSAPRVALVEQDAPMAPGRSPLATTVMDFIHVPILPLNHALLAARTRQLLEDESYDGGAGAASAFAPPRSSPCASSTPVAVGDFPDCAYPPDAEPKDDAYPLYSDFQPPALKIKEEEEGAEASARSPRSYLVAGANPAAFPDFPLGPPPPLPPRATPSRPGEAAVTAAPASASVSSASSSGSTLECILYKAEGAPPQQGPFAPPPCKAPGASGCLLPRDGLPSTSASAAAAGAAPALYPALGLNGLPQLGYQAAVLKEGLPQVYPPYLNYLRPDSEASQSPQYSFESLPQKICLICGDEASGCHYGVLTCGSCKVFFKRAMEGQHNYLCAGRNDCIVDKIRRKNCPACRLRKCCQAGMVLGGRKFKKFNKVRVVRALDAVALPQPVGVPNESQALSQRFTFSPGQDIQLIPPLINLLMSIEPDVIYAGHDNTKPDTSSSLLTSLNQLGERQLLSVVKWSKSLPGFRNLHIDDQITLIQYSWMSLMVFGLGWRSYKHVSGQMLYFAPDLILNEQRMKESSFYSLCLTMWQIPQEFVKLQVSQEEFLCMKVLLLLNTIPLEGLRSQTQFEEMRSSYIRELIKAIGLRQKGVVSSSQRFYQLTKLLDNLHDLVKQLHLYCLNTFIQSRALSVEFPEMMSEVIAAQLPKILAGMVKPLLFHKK

Cannabinoid receptor 1 = Cannabinoid receptor 1 (Homo sapiens, UniProt P21554); assay type: functional, cell-based
[4] = target: T4, Gastrin/cholecystokinin type B receptor (Homo sapiens, UniProt P32239)
T4 sequence (P32239 whole entry): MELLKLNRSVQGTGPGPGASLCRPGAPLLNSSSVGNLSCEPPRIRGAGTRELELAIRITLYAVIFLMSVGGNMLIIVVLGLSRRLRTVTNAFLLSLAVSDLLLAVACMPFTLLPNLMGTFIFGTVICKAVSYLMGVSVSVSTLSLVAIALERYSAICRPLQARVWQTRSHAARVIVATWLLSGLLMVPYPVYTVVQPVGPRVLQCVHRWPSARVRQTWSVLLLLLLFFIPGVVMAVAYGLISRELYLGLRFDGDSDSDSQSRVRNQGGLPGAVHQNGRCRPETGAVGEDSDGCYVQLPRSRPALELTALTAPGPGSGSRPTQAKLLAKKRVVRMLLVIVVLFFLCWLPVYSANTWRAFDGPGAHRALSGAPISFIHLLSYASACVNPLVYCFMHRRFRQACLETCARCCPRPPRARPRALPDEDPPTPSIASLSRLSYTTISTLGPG

[5] = target: T2, Alpha-1A adrenergic receptor; assay type: functional, cell-based; remark: listed apart in the source
[6] = target: Vascular endothelial growth factor receptor 2 (Homo sapiens, UniProt P35968); assay type: functional
Histamine H3 receptor = Histamine H3 receptor (Homo sapiens, UniProt Q9Y5N1)
Thromboxane A2 receptor = target: T5, Thromboxane A2 receptor (Homo sapiens, UniProt P21731); assay type: functional, cell-based
T5 sequence (P21731 whole entry): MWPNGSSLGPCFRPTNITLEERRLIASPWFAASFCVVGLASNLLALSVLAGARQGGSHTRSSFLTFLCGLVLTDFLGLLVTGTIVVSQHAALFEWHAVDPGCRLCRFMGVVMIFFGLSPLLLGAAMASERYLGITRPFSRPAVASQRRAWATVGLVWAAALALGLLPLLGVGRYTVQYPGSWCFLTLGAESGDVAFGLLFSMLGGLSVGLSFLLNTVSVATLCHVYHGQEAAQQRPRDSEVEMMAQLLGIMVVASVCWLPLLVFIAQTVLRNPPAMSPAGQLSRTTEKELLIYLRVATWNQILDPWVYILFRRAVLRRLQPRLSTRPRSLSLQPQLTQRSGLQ

[7] = target: Beta-2 adrenergic receptor (Homo sapiens, UniProt P07550)
Also: assay procedure not described here.

Sequence of Histamine H3 receptor (Q9Y5N1 whole entry): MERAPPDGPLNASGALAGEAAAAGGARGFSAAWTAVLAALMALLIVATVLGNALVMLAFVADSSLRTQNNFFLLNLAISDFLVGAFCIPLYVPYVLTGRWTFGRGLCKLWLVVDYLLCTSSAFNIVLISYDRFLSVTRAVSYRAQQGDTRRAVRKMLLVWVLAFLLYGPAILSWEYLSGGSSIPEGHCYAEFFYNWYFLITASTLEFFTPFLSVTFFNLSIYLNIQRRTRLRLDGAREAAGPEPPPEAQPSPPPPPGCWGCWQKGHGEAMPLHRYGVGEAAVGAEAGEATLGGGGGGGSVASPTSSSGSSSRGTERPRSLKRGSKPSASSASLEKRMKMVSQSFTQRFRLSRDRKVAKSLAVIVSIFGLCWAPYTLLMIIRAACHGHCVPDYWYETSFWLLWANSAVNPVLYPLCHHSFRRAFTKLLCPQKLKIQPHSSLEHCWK
Sequence of Cannabinoid receptor 1 (P21554 whole entry): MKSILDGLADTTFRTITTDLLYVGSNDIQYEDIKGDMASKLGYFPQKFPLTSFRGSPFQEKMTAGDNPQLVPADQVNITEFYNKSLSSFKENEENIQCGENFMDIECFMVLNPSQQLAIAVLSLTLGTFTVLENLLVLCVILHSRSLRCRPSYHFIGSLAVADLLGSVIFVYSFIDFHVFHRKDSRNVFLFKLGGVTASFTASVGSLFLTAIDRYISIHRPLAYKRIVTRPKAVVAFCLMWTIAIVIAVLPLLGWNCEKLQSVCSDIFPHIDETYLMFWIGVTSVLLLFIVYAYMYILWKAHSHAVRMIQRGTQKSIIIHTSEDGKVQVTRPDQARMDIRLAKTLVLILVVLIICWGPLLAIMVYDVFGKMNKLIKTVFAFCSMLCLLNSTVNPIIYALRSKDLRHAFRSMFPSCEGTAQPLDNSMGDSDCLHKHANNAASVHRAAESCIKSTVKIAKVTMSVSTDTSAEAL
Sequence of Muscarinic acetylcholine receptor M3 (P20309 whole entry): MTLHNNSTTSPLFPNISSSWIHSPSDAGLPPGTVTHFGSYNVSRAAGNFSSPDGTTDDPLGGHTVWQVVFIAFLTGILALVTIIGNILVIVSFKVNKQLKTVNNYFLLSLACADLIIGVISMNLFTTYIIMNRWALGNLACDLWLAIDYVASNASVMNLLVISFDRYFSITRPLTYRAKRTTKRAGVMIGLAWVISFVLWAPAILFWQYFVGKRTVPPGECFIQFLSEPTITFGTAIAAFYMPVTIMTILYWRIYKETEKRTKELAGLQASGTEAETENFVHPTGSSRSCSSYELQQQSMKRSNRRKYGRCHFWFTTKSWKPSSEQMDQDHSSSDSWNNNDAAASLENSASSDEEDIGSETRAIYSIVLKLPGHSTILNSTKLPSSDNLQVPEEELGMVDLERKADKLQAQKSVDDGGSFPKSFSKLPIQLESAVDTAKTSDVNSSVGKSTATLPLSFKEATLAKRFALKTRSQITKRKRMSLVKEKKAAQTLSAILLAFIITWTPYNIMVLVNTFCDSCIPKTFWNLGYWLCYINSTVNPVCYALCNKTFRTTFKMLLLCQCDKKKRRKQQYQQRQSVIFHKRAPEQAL
Sequence of Beta-2 adrenergic receptor (P07550 whole entry): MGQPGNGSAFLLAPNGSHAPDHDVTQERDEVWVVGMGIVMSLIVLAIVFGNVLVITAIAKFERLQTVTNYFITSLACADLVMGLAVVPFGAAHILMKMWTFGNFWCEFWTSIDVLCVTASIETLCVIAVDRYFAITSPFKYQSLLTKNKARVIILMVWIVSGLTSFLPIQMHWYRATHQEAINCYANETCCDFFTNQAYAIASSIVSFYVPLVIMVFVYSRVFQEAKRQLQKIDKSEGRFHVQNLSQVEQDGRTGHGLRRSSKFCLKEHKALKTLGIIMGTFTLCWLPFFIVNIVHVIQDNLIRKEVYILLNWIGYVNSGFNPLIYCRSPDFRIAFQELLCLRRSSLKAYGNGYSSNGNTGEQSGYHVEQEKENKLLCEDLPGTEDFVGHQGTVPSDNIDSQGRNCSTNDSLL
Sequence of Vascular endothelial growth factor receptor 2 (P35968 whole entry): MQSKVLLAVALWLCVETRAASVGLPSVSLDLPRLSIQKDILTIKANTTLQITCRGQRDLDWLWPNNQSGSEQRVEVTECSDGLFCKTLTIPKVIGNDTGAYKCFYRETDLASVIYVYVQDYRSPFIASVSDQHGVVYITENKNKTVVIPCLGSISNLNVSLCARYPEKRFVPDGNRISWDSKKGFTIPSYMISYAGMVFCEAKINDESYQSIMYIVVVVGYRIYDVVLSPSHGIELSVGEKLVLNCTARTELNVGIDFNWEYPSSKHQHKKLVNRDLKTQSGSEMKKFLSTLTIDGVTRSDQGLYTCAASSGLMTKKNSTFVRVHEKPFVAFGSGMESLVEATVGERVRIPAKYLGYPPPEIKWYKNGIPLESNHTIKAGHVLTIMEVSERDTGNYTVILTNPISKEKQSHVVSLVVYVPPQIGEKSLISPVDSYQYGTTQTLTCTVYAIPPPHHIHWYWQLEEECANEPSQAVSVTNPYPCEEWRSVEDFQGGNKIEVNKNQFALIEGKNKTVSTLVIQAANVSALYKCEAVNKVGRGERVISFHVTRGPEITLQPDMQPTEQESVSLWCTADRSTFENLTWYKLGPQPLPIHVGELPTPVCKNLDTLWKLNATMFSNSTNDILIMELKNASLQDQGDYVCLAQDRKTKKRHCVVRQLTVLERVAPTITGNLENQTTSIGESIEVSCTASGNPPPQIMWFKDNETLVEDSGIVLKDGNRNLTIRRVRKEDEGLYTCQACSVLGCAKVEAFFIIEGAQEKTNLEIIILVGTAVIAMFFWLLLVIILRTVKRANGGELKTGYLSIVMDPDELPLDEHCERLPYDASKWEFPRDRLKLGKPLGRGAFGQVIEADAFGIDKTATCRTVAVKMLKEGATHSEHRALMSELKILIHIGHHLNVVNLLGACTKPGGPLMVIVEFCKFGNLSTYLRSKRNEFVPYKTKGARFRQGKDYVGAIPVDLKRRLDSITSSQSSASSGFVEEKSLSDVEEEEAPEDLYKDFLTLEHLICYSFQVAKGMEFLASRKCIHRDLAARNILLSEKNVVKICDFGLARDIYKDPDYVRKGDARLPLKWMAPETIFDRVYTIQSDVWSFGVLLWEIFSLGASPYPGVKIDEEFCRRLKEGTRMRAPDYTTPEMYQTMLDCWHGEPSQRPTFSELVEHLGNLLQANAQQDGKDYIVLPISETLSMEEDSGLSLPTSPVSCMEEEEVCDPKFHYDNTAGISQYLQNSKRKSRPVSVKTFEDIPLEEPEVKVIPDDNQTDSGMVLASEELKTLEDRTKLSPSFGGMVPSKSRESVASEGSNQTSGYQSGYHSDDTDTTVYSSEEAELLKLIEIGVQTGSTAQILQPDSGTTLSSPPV

| AC50 [1] | AC50 [2] | AC50 [3] | AC50 (Progesterone receptor) | AC50 (Cannabinoid receptor 1) | AC50 [4] | AC50 [7] | Structure (SMILES) | AC50 [5] | AC50 [6] | AC50 (Histamine H3 receptor) | AC50 (Thromboxane A2 receptor) |
| --- | --- | --- | --- | --- | --- | --- | --- | --- | --- | --- | --- |
| > 30 µM | > 30 µM | > 30 µM | > 30 µM | > 30 µM | > 30 µM | – | CN(C)CCOC(c1ccc(Cl)cc1)c1ccccn1 (configuration not stated) [CARBINOXAMINE] | – | – | – | – |
| > 30 µM | > 30 µM | > 30 µM | > 30 µM | – | > 30 µM | > 30 µM | C[C@H](Cn1cnc2c(N)ncnc21)OCP(=O)(O)O [TENOFOVIR ANHYDROUS] | – | – | – | – |
| > 30 µM | > 30 µM | > 30 µM | > 30 µM | > 30 µM | > 30 µM | > 30 µM | CC(C)/N=c1\cc2n(-c3ccc(Cl)cc3)c3ccccc3nc-2cc1Nc1ccc(Cl)cc1 [CLOFAZIMINE] | – | – | – | – |
| – | > 30 µM | > 30 µM | > 30 µM | > 30 µM | – | – | Nc1c2c(nc3ccccc13)CCCC2O (configuration not stated) [VELNACRINE] | – | – | – | – |
| – | > 30 µM | > 30 µM | > 30 µM | > 30 µM | – | – | COc1cc2c(cc1OC)C1CC(=O)C(CC(C)C)CN1CC2 (configuration not stated) [TETRABENAZINE] | – | – | – | – |
| > 10 µM | > 30 µM | – | > 10 µM | – | – | > 10 µM | CNC1(C)C2CCC(C2)C1(C)C (configuration not stated) [MECAMYLAMINE] | – | – | – | – |
| > 30 µM | > 30 µM | – | > 30 µM | 17 µM | > 30 µM | > 10 µM | CC(=O)SCC(Cc1ccccc1)C(=O)NCC(=O)OCc1ccccc1 (configuration not stated) [RACECADOTRIL] | – | – | – | – |

Continued, compound first:

| Structure (SMILES) | AC50 [1] | AC50 [2] | AC50 [3] | AC50 (Progesterone receptor) | AC50 (Cannabinoid receptor 1) | AC50 [4] | AC50 [7] | AC50 [5] | AC50 [6] | AC50 (Histamine H3 receptor) | AC50 (Thromboxane A2 receptor) |
| --- | --- | --- | --- | --- | --- | --- | --- | --- | --- | --- | --- |
| NC(=O)C1(N2CCCCC2)CCN(CCCN2c3ccccc3CCc3ccccc32)CC1 [CARPIPRAMINE] | – | – | – | – | – | – | – | 13.7 µM | > 30 µM | 11.7 µM | – |
| CC(C)NC[C@H](O)COc1ccc(O)cc1 [PRENALTEROL] | – | – | – | – | – | – | – | > 30 µM | > 30 µM | > 30 µM | > 30 µM |
| C[C@H](Nc1ncnc2[nH]cnc12)c1cc2cccc(Cl)c2c(=O)n1-c1ccccc1 [DUVELISIB] | – | > 30 µM | > 30 µM | > 30 µM | > 30 µM | – | – | – | – | > 30 µM | 15.1 µM |
| CC(C)C[C@H](NC(=O)[C@H](Cc1ccccc1)NC(=O)c1cnccn1)B(O)O [BORTEZOMIB] | > 30 µM | > 30 µM | – | > 30 µM | – | > 30 µM | > 30 µM | – | – | – | – |
| Cn1cnc2c(F)c(Nc3ccc(Br)cc3F)c(C(=O)NOCCO)cc21 [BINIMETINIB] | – | > 30 µM | > 30 µM | > 30 µM | > 30 µM | – | – | – | – | – | – |
| C[C@@H](O)[C@H]1C(=O)N2C(C(=O)O)=C(SCCN=CN)C[C@H]12 [IMIPENEM ANHYDROUS] | – | > 300 µM | > 300 µM | > 300 µM | > 300 µM | – | – | – | – | – | – |
| CO[C@@H]1[C@@H](OC(N)=O)[C@@H](O)[C@H](Oc2ccc3c(O)c(NC(=O)c4ccc(O)c(CC=C(C)C)c4)c(=O)oc3c2C)OC1(C)C [NOVOBIOCIN] | – | > 30 µM | > 30 µM | > 30 µM | > 30 µM | – | – | – | – | – | – |
